{
  "source": "paper PMC10555500",
  "about": "“Evaluation of the Antiproliferative Properties of CpRu Complexes Containing N-Methylated Triazaphosphaadamantane Derivatives” (Bioinorganic Chemistry and Applications, 2023)",
  "key": {"[1]": {"tested_on": "MDA-MB-231 breast cancer cells", "assay": "MTT cytotoxicity assay, MDA-MB-231 cells", "assay_type": "cell-based, human", "settings": "24 h incubation, MTT, average of at least three experiments (±SD)", "protocol": "(§1) The MDA-MB-231 and MCF-7 human breast cancer cells were purchased from ATCC. The MDA-MB-231 and MCF-7 cells were grown in Dulbecco's modified Eagles' medium (DMEM high glucose) (Capricorn Scientific) at 37°C in 5% CO2 supplemented with 10% fetal bovine serum (Capricorn Scientific). HDF cells were purchased from Merck and were grown in the fibroblast growth medium. All cells were adherent in monolayers and, upon confluence, were washed with phosphate buffer saline (PBS) and harvested by digestion with trypsin-EDTA 0.05% (v/v). The cells were suspended and transferred into new, sterile, culture flasks for maintenance or seeded in sterile test microplates for different assays. All cells were manipulated under aseptic conditions in a flow chamber.\n(§2) The cells were adherent in monolayers and, upon confluence, were harvested by digestion with trypsin. The cytotoxicity of the complexes against the tumour cells was assessed using the colorimetric assay MTT […], which evaluates the metabolic activity of viable cells. This assay measures the conversion of yellow tetrazolium into purple formazan by an active mitochondrial dehydrogenase in living cells. For this purpose, the cells (10–20 × 10^3 in 200 μL of the medium) were seeded into 96-well plates and incubated in a 5% CO2 incubator at 37°C. The cells were settled for 24 h followed by the addition of a dilution series of the complexes in a medium (200 μL). The complexes were first solubilized in 100% DMSO, given a 10 mM stock solution, and then in a medium within the concentration range of 0.1–100 µM. […] After 24 h of incubation, the treatment solutions were removed by aspiration, and MTT solution (200 μL, 0.5 mg·mL^−1 in PBS) was added to each well. After 3 h at 37°C/5% CO2, the solution was removed, and the purple formazan crystals formed inside the cells were dissolved in DMSO (200 μL) by thorough shaking. The cellular viability was evaluated by measuring the absorbance at 570 nm by using a microplate spectrophotometer. The IC50 values were obtained by dose-response curves using the GraphPad Prism software (vs. 5).\nThe MDA-MB-231 and MCF-7 human breast cancer cells were purchased from ATCC. MDA-MB-231 and MCF-7 cells were grown in Dulbecco’s modified Eagles’s medium (DMEM high glucose) (Capricorn Scientific) at 37 °C in 5% CO2 supplemented with 10% fetal bovine serum (Capricorn Scientific). All cells were adherent in monolayers and, upon confluence, were washed with phosphate buffer saline (PBS) and harvested by digestion with Trypsin-EDTA 0.05% (v/v). The cells were suspended and transferred into new, sterile, culture flasks, for maintenance or seeded in sterile test microplates for different assays. All cells were manipulated under aseptic conditions in a flow chamber.\nThe cells were adherent in monolayers and, upon confluency, were harvested by digestion with trypsin. The cytotoxicity of the complexes against the tumour cells was assessed using the colorimetric assay MTT […], which evaluate the metabolic activity of viable cells. This assay measures the conversion of the yellow tetrazolium into purple formazan by an active mitochondrial dehydrogenase in living cells. For this purpose, cells (10-20 × 10^3 in 200 μL of medium) were seeded into 96-well plates and incubated in a 5% CO2 incubator at 37 °C. The cells were settled for 24 h followed by the addition of a dilution series of the complexes in medium (200 μL). The complexes were first solubilized in 100% DMSO, given a 10 mM stock solution, and then in medium within the concentration range of 0.1–100 µM. […] After 24 h of incubation, the treatment solutions were removed by aspiration, and MTT solution (200 μL, 0.5 mg·mL^-1 in PBS) was added to each well. After 3 h at 37 °C/5% CO2, the solution was removed, and the purple formazan crystals formed inside the cells were dissolved in DMSO (200 μL) by thorough shaking. […]"}, "[2]": {"tested_on": "normal human fibroblasts (HDF)", "assay": "MTT cytotoxicity assay, normal human dermal fibroblasts", "assay_type": "cell-based", "protocol": "as §1, §2"}, "[3]": {"tested_on": "MCF-7 breast cancer cells", "assay": "MTT cytotoxicity assay, MCF-7 cells", "assay_type": "cell-based, human", "settings": "24 h incubation, average of at least three experiments (±SD)", "protocol": "as §1\nThe cells were adherent in monolayers and, upon confluence, were harvested by digestion with trypsin. The cytotoxicity of the complexes against the tumour cells was assessed using the colorimetric assay MTT […], which evaluates the metabolic activity of viable cells. This assay measures the conversion of yellow tetrazolium into purple formazan by an active mitochondrial dehydrogenase in living cells. For this purpose, the cells (10–20 × 10^3 in 200 μL of the medium) were seeded into 96-well plates and incubated in a 5% CO2 incubator at 37°C. The cells were settled for 24 h followed by the addition of a dilution series of the complexes in a medium (200 μL). The complexes were first solubilized in 100% DMSO, given a 10 mM stock solution, and then in a medium within the concentration range of 0.1–100 µM. […] The cellular viability was evaluated by measuring the absorbance at 570 nm by using a microplate spectrophotometer. […]\nThe cells were adherent in monolayers and, upon confluency, were harvested by digestion with trypsin. The cytotoxicity of the complexes against the tumour cells was assessed using the colorimetric assay MTT […], which evaluate the metabolic activity of viable cells. […]"}},
  "data": [
    {"molecule": "CN1CN2CN(C)C[P]([Ru+2]([P](c3ccccc3)(c3ccccc3)c3ccccc3)[P](c3ccccc3)(c3ccccc3)c3ccccc3)(C1)C2.O=S(=O)([O-])C(F)(F)F.[Cl][Pd][Cl].c1cc[cH-]c1", "note": "[Compound 11, [RuCp(PPh3)2-µ-dmoPTA-1κP-2κ^2N,N′-PdCl2](CF3SO3)]", "values": [
      {"measurement": "IC50", "setting": "[1]", "value": "1.1 ± 0.2", "unit": "µM"},
      {"measurement": "IC50", "setting": "[2]; 24 h incubation, MTT, normal human fibroblasts", "value": "1.59 ± 0.45", "unit": "µM"},
      {"measurement": "Fold less cytotoxic for fibroblasts (HDF) than for MCF-7 cells", "setting": "[2]; selectivity HDF vs MCF-7", "value": "2-3 fold"},
      {"measurement": "Fold less cytotoxic for fibroblasts (HDF) than for MDA-MB-231 cells", "setting": "[2]; selectivity HDF vs MDA-MB-231", "value": 1.5, "unit": "fold"},
      {"measurement": "IC50", "setting": "[3]", "value": "0.73 ± 0.11", "unit": "µM"}
    ]}
  ]
}
